According to US6087131A, “β-glucosidase from filamentous fungi, and uses thereof” (Institut National de la Recherche Agronomique - I.N.R.A., priority 1995, dated 2000):

Assays:
Format in all cases: biochemical
[1] = target: T1, β-glucosidase of A. niger purified from the KLERZYME enzymatic preparation (Aspergillus niger, UniProt A2RAL4); experiment: Inhibition of KLERZYME β-glucosidase activity by glucose or δ-gluconolactone, PNPG as substrate
T1 construct: purchased GIST-BROCADES, SECLIN, FRANCE
Method: (§1) The assay of the β-glucosidase activity is carried out by incubating, for 20 minutes at 40° C., 1 volume of enzymatic sample with 1 volume of p-nitrophenol β-D-glucoside (PNPG) (4 mM in 100 mM acetate buffer, pH 4.4). The quantity of PNP (pnitrophenol) liberated is estimated by adding 6 volumes of 0.1 M Na2 CO3 and monitoring the absorbance reading at 400 nm. The enzymatic activity is expressed in nanokatals per ml (nkat/ml) of enzymatic solution. One nanokatal corresponds to the number of nanomoles of PNP liberated per second under the abovementioned conditions.
(§2) The residual enzymatic activity is estimated after incubating the mixture for 20 minutes at 40° C.

[2] = system: β-glucosidase BGI of A. oryzae (CBS 12559), molecular mass greater than 130,000; experiment: Inhibition of β-glucosidase BGI activity by glucose or δ-gluconolactone, PNPG as substrate
Method: as §1, §2

[3] = system: β-glucosidase BGII of A. oryzae (CBS 12559), exocellular, molecular mass about 30,000; experiment: Inhibition of β-glucosidase BGII activity by glucose or δ-gluconolactone, PNPG as substrate; conditions: PNPG 4 mM, 20 minutes at 40° C.
Method: as §1, §2

T1 sequence (A2RAL4 20-860): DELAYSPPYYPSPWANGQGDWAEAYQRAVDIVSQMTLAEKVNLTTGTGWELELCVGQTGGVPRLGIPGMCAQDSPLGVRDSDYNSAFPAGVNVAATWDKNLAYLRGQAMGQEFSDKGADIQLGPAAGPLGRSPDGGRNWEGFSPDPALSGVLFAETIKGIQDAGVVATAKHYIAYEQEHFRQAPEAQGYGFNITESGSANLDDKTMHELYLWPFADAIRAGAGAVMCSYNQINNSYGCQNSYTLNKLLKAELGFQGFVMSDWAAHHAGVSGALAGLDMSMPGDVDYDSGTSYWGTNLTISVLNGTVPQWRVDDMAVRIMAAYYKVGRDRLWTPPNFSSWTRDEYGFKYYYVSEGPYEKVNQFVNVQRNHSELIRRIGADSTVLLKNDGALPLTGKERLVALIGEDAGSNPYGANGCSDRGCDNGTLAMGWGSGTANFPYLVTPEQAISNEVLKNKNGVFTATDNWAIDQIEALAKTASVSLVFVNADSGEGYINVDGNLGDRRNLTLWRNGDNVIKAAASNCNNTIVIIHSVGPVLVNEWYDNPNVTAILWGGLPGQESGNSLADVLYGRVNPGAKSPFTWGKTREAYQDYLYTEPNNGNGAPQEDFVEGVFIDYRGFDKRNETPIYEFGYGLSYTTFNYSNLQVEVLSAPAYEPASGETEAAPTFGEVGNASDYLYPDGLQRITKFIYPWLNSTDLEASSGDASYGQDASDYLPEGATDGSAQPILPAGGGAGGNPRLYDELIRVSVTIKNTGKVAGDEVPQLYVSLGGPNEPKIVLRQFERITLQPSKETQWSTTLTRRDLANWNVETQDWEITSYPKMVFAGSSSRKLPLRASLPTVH

Row | Structure (SMILES) | inhibition in the presence of gluconolactone ([1]; KLERZYME β-glucosidase, 1 g/l of gluconolactone, PNPG 4 mM, 20 minutes at 40° C.) | inhibition in the presence of gluconolactone ([2]; 1 g/l of gluconolactone, PNPG 4 mM, 20 minutes at 40° C.) | activity retained in the presence of gluconolactone ([3]; 1 g/l of gluconolactone) | activity retained in the presence of gluconolactone ([3]; 10 g/l of gluconolactone) [%] | remaining activity at 25000 µg/mL ([1]; 20 min, pH 4.4, read-out: activity remaining in the presence of glucose) [%] | inhibition in the presence of glucose ([1]; KLERZYME β-glucosidase, 50 g/l of glucose, PNPG 4 mM, 20 minutes at 40° C.) | activity remaining in the presence of glucose ([2]; 25 g/l of glucose, PNPG 4 mM, 20 minutes at 40° C.) | inhibition in the presence of glucose ([2]; 50 g/l of glucose, PNPG 4 mM, 20 minutes at 40° C.) | Ki ([2]; read-out: inhibition constant (Ki) for glucose, with respect to PNPG, Lineweaver-Burk representation, competitive inhibitor) [mM] | activity retained in the presence of glucose ([3]; 25 g/l of glucose) | inhibition in the presence of glucose ([3]; 100 g/l of glucose) [%]
1 | O=C1O[C@H](CO)[C@@H](O)[C@H](O)[C@H]1O [gluconolactone, δ-gluconolactone] | practically completely inhibited | practically completely inhibited | more than 30% | 20 | – | – | – | – | – | – | –
2 | OC[C@H]1OC(O)[C@H](O)[C@@H](O)[C@@H]1O (some centres unmarked) [glucose] | – | – | – | – | ~10 | practically completely inhibited | about 15% | practically completely inhibited | 3.5 | about 80% | 57
